# Data published in US10653655B2, “Composition for preventing or improving peripheral neuropathy” (AJINOMOTO CO., INC., priority 2014, dated 2020).
# Legend:
# [1] = test system: rat having hypersensitive pain induced by gonitis inducing agent (Zymosan); test: Von Frey test in rat having hypersensitive pain induced by gonitis inducing agent (Zymosan) (Experimental Example 2); type: in vivo; conditions: SD rat, Zymosan 2 mg right knee; oral once per day; L-serine 10.5 mg/kg, EPA 300 mg/kg equivalent; 7 and 14 days; right and left foot; 4 g, 8 g, 15 g
# Description: (§1) 8-Week-old male SD rats were divided into 5 groups (2A group-2E group, N=7) based on the body weight, and 2 mg of a gonitis inducing agent (Zymosan) was administered to the right knee cartilage part in 4 groups other than 2A group. In addition, the following evaluation liquid was orally ingested once per day in the time zone of 4 to 5 hours after start of the light period for 21 days from the administration of the gonitis inducing agent to the right knee. As eicosapentaenoic acid administered to 2D group, 2E group, fish oil corresponding to 300 mg/body weight kg (equivalent to 429 mg/body weight kg as n-3 fatty acid) was used.
# (§2) Evaluation Liquids for 2A Group-2E Group: • 2A group: distilled water • 2B group: distilled water • 2C group: L-serine 10.5 mg/body weight kg • 2D group: eicosapentaenoic acid 300 mg/body weight kg equivalent • 2E group: L-serine 10.5 mg/body weight kg+eicosapentaenoic acid 300 mg/body weight kg equivalent
# Von Frey test was performed at 7 days and 14 days after the gonitis inducing agent administration. […] The ratio (%) of the number of pain response relative to the number (5 times) of filament pressing was calculated at each stimulation intensity.
# [2] = test system: rat having hypersensitive pain induced by anticancer agent (Oxaliplatin); test: Von Frey test in rat having hypersensitive pain induced by anticancer agent (Experimental Example 1); type: in vivo; conditions: SD rat, Oxaliplatin 5 mg/kg i.p. 5 days; oral once per day 28 days; L-serine 10.5 mg/kg, EPA 300 mg/kg equivalent; 22 and 28 days; stimulation intensity 4 g, 8 g, 15 g
# Description: 6-Week-old male SD rats were divided into 5 groups (1A group-1E group, N=6) based on the body weight, an anticancer agent (Oxaliplatin 5 mg/body weight kg) was intraperitoneally administered to 4 groups other than 1A group for 5 days, and saline was intraperitoneally administered to 1A group for 5 days. In addition, the following evaluation liquid was orally ingested once per day in the time zone of 4 to 5 hours after start of the light period for 28 days simultaneously from the start of the intraperitoneal administration. As eicosapentaenoic acid administered to 1D group, 1E group, fish oil corresponding to 300 mg/body weight kg (equivalent to 429 mg/body weight kg as n-3 fatty acid) was used. Evaluation Liquids for 1A Group-1E Group: • 1A group: distilled water • 1B group: distilled water • 1C group: L-serine 10.5 mg/body weight kg • 1D group: eicosapentaenoic acid 300 mg/body weight kg equivalent • 1E group: L-serine 10.5 mg/body weight kg+eicosapentaenoic acid 300 mg/body weight kg equivalent Von Frey test was performed at 22 days and 28 days after the start of the anticancer agent administration. […] The ratio (%) of the number of pain response relative to the number (10 times) of filament pressing was calculated at each stimulation intensity.
# [3] = test system: rat having hypersensitive pain induced by gonitis inducing agent (Zymosan); test: Gastrocnemius weight of right and left foot in Zymosan gonitis rat (Experimental Example 2); type: in vivo; conditions: 21 days after Zymosan, rank among 2C-2E groups
# Description: as §1, §2
# After the completion of ingestion of the evaluation liquid (21 days after gonitis inducing agent administration), rats were fasted for 17 hours, and the body weight, gastrocnemius weight of the right foot and the left foot, liver weight and weight of fat around epididymis of each group were measured.
# [4] = test system: peripheral neuropathic pain in an animal model of anticancer agent or diabetes; conditions: at the maximum concentration of L-serine; WO 2011/111355; cited from earlier work
compound,measurement,setting,value
N[C@@H](CO)C(=O)O [L-serine],number of pain response (Von Frey test) as compared to 2B group,[1],slightly decreased
same,number of pain response (Von Frey test) as compared to 1B group,[2],slightly decreased
same,"gastrocnemius weight of the right foot, comparison in 2C group to 2E group",[3]; after 17 h fasting,lowest
same,"difference in the gastrocnemius weight of both feet, comparison among 2C group to 2E group",[3],largest
same,relieving effect on peripheral neuropathic pain due to anticancer agents and diabetes,[4],partial
